{
  "source": "patent US20240209423A1",
  "about": "“METHODS AND COMPOSITIONS FOR REDUCING AUTOFLUORESCENCE” (Advanced Cell Diagnostics, Inc., priority 2021, published 2024)",
  "key": {"[1]": {"test_system": "tissue autofluorescence in FFPE mouse multi-tissue arrays", "test": "Quinone compounds tested for tissue autofluorescence quenching, FFPE mouse multi-tissue arrays", "conditions": "incubated for 30 min; compared with 4×SSC untreated control slide", "experimental": "Multiple quinone compounds were tested for tissue autofluorescence quenching effects on FFPE mouse multi-tissue arrays. After bake, deparaffinization, and pretreatment to permeabilize the tissue, 4×SSC or quinone derivative was applied to the tissue and incubated for 30 min. After washing DAPI was applied to stain the nucleus. Slides were then mounted with prolong gold and scanned using the same microscopic settings. A reduction in autofluorescence was determined by comparing the fluorescence on the quinone derivative treated slide with a 4×SSC untreated control slide."}, "[2]": {"test_system": "FFPE mouse multi tissue array", "test": "Quinone treatment condition optimization, RNAscope HiPlex, FFPE mouse multi tissue array"}, "[3]": {"test_system": "autofluorescence in FFPE Human Brain Tissues", "test": "Quenching of endogenous and lipofuscin autofluorescence, unstained FFPE human brain tissues", "conditions": "100 mM in 4×SSC", "experimental": "The present methods are effective at partially reducing autofluorescence caused by lipofuscin pigment granules that are most commonly found in brain tissues. FFPE Human Brain Tissues were treated with or without pBQ and imaged without staining to reveal tissue endogenous autofluorescence."}, "[4]": {"test": "Maximum solubility in 4×SSC", "format": "physicochemical", "conditions": "4×SSC buffer, aqueous buffer"}, "mouse FFPE liver tissue": {"test_system": "mouse FFPE liver tissue", "test": "Dye compatibility with p-benzoquinone treatment, RNAscope, mouse FFPE liver tissue", "conditions": "p-benzoquinone applied after Amp 3", "from_the_text": "To evaluate the compatibility of certain dyes, targets were detected in mouse FFPE liver tissue, using the p-benzoquinone treatment step. […] Experimentally, these targets were detected using RNAscope® double Z probes and signals were amplified using an RNAscope® amplification system (Amp 1, 2, 3), with p-benzoquinone applied after Amp 3."}, "[5]": {"test_system": "autofluorescence in non-human primate fixed frozen liver tissue", "test": "RNAscope HiPlex assay with p-benzoquinone treatment, non-human primate fixed frozen liver tissue", "conditions": "100 mM in 4×SSC, vs 4×SSC alone"}, "[6]": {"test_system": "mouse fresh frozen tissue", "test": "RNAscope HiPlex assay with p-benzoquinone treatment, mouse fresh frozen tissue", "conditions": "100 mM in 4×SSC", "experimental": "(§1) RNAscope® HiPlex assays were conducted to detect four positive control genes in mouse FFPE kidney tissue. ZZ probes for 12 different targets were hybridized together to a mouse multi-tissue array prepared as formalin-fixed paraffin embedded sections, and the hybridization signals were amplified together by successive rounds of hybridization with the preamplifier and amplifier sequences. Autofluorescence quenching was performed by application of p-benzoquinone (100 mM in 4× Saline-Sodium Citrate (SSC)) onto the slides for 30 minutes at room temperature, followed by detection of four (Ppib, Ubc, Polr2a and Hprt1) of the 12 target genes using fluorescent label probes corresponding to the signal amplification systems assigned to these four target probes and the fluorophores Alexa 488, DyLight 550, DyLight 650 and Alexa 750 respectively (bottom panels). On a separate slide, 4×SSC buffer alone was used as the untreated control. Nuclei were stained with DAPI.\nYet another similar experiment was conducted using mouse fresh frozen tissue, with detection of four of the twelve targets (Polr2a, Ppib, Ubc, and Hprt1)."}, "[7]": {"test_system": "autofluorescence in mouse FFPE kidney tissue", "test": "RNAscope HiPlex assay with p-benzoquinone autofluorescence quenching, mouse FFPE kidney tissue", "conditions": "100 mM in 4× SSC, 30 minutes at room temperature, vs 4×SSC control", "experimental": "as §1"}, "[8]": {"test_system": "FFPE human tumor microarray", "test": "Quinone treatment condition optimization, RNAscope HiPlex, FFPE human tumor microarray", "parameters": "key to the marks not given beside the values", "conditions": "100 mM, 30 min, Polr2a, PPIB, UBC, Hprt1", "experimental": "Major factors tested for p-benzoquinone were chemical concentration, incubation time, and fluorescent dyes."}, "FFPE mouse brain": {"test_system": "FFPE mouse brain", "test": "Antibody compatibility with pBQ treatment (immunofluorescence), FFPE mouse brain", "conditions": "NeuN, Chicken anti NeuN 1:500, Goat anti-chicken AF555 1:500", "experimental": "(§2) CD20 was detected in human head and neck FFPE tissue. After bake, deparaffmization, and pretreatment to permeabilize the tissue, 4×SSC (untreated control) or p-benzoquinone (pBQ) (40 mM in 4×SSC) was applied onto the tissue and incubated for 30 min. After washing, mouse anti-CD20 primary antibody (Leica Ready to Use) was applied for 1 hour at room temperature (RT). Signal was amplified by rabbit anti-mouse post primary antibody (Leica Ready to Use) and goat anti-rabbit […] secondary antibody (Leica Ready to Use) conjugated to HRP. Signal was detected using Opal 520 (Akoya Bio) diluted 1:500 in TSA buffer. The images were taken with the same exposure settings. The brightness of the pBQ treated slide was increased by two-fold to achieve optimal display.\n(§3) Additional antibodies were tested for compatibility with p-benzoquinone treatment, using the same general experimental method as described above."}, "[9]": {"test_system": "autofluorescence in human FFPE lung cancer tissue", "test": "RNAscope HiPlex assay with p-benzoquinone treatment, human FFPE lung cancer tissue", "conditions": "100 mM in 4×SSC, vs 4×SSC alone", "experimental": "as §1"}, "[10]": {"test_system": "human head and neck FFPE tissue", "test": "CD20 immunofluorescence after p-benzoquinone treatment, human head and neck FFPE tissue", "conditions": "40 mM in 4×SSC, 30 min, CD20, Opal 520", "procedure": "CD20 was detected in human head and neck FFPE tissue. After bake, deparaffmization, and pretreatment to permeabilize the tissue, 4×SSC (untreated control) or p-benzoquinone (pBQ) (40 mM in 4×SSC) was applied onto the tissue and incubated for 30 min. After washing, mouse anti-CD20 primary antibody (Leica Ready to Use) was applied for 1 hour at room temperature (RT). Signal was amplified by rabbit anti-mouse post primary antibody (Leica Ready to Use) and goat anti-rabbit Alexa 488 secondary antibody (Leica Ready to Use) conjugated to HRP. Signal was detected using Opal 520 (Akoya Bio) diluted 1:500 in TSA buffer. The images were taken with the same exposure settings."}, "hTMAc": {"test_system": "hTMAc", "test": "Antibody compatibility with pBQ treatment (immunofluorescence), hTMAc", "conditions": "CD3, Leica mouse anti-CD3 1:200, Goat anti-rabbit AF488 1:500", "experimental": "as §2, §3"}},
  "data": [
    {"molecule": "O=C1C=C(Cl)C(=O)C=C1Cl", "note": "[2,5-Dichloro-1,4-benzoquinone]", "values": [
      {"measurement": "Autofluorescence quenching effect", "setting": "[1]", "value": "Yes"}
    ]},
    {"molecule": "COC1=CC(=O)C(OC)=CC1=O", "note": "[2,5-Dimethoxy-(1,4)-benzoquinone]", "values": [
      {"measurement": "Autofluorescence quenching effect", "setting": "[1]", "value": "No"}
    ]},
    {"molecule": "O=C1C=C(Cl)C(=O)C(Cl)=C1", "note": "[2,6-Dichloro-1,4-benzoquinone]", "values": [
      {"measurement": "Autofluorescence quenching effect", "setting": "[1]", "value": "Yes"}
    ]},
    {"molecule": "COC1=CC(=O)C=C(OC)C1=O", "note": "[2,6-Dimethoxy-1,4-benzoquinone]", "values": [
      {"measurement": "Autofluorescence quenching effect", "setting": "[1]", "value": "No"}
    ]},
    {"molecule": "CC1=CC(=O)C=C(C)C1=O", "note": "[2,6-Dimethylbenzoquinone]", "values": [
      {"measurement": "Autofluorescence quenching effect", "setting": "[1]", "value": "No"}
    ]},
    {"molecule": "O=C1C=CC(=O)C(Cl)=C1", "note": "[2-Chloro-1,4-benzoquinone]", "values": [
      {"measurement": "Autofluorescence quenching effect", "setting": "[1]", "value": "Yes"}
    ]},
    {"molecule": "COC1=CC(=O)C=CC1=O", "note": "[2-methoxybenzo-1,4-quinone]", "values": [
      {"measurement": "Autofluorescence quenching effect", "setting": "[1]", "value": "Yes"}
    ]},
    {"molecule": "Oc1ccc(O)cc1", "note": "[Hydroquinone]", "values": [
      {"measurement": "Signal/noise ratio", "setting": "[2]; 20 mM, 4 d, with light exposure", "value": "−−+"},
      {"measurement": "Signal/noise ratio", "setting": "[2]; 20 mM, 6 d, with light exposure", "value": "−−+"},
      {"measurement": "Signal/noise ratio", "setting": "[2]; 200 mM, 2 d, with light exposure", "value": "−−+"},
      {"measurement": "Signal/noise ratio", "setting": "[2]; 200 mM, 4 d, with light exposure", "value": "−++"},
      {"measurement": "Signal/noise ratio", "setting": "[2]; 200 mM, 5 d, with light exposure", "value": "−++"},
      {"measurement": "Signal/noise ratio", "setting": "[2]; 200 mM, 6 d, with light exposure", "value": "−++"},
      {"measurement": "Signal/noise ratio", "setting": "[2]; Buffer 2x SSC (20 mM, 4 d, with light exposure)", "value": "−−+"},
      {"measurement": "Signal/noise ratio", "setting": "[2]; Buffer 4x SSC (20 mM, 4 d, with light exposure)", "value": "−−+"},
      {"measurement": "Signal/noise ratio", "setting": "[2]; Buffer Decal (20 mM, 4 d, with light exposure)", "value": "−−+"},
      {"measurement": "Signal/noise ratio", "setting": "[2]; Buffer RNAase later/inhibitor (20 mM, 4 d, with light exposure)", "value": "−−+"},
      {"measurement": "Signal/noise ratio", "setting": "[2]; Light exposure Yes (200 mM, 2 d)", "value": "−−+"},
      {"measurement": "Signal/noise ratio", "setting": "[2]; Workflow position After Amp1 (20 mM, 2 d, with light exposure)", "value": "−−+"},
      {"measurement": "Signal/noise ratio", "setting": "[2]; Workflow position After Amp2 (20 mM, 2 d, with light exposure)", "value": "−−+"},
      {"measurement": "Signal/noise ratio", "setting": "[2]; Workflow position After Amp3 (20 mM, 2 d, with light exposure)", "value": "−++"},
      {"measurement": "Autofluorescence quenching effect", "setting": "[1]", "value": "Yes"}
    ]},
    {"molecule": "CC1=CC(=O)C=CC1=O", "note": "[Methyl-p-benzoquinone]", "values": [
      {"measurement": "Autofluorescence quenching effect", "setting": "[1]", "value": "No"}
    ]},
    {"molecule": "O.O=C1C(O)=C(O)C(=O)C(O)=C1O", "note": "[Tetrahydroxy-1,4-quinone hydrate]", "values": [
      {"measurement": "Autofluorescence quenching effect", "setting": "[1]", "value": "No"}
    ]},
    {"molecule": "O=C1C=CC(=O)C=C1", "note": "[p-benzoquinone]", "values": [
      {"measurement": "effect on lipofuscin autofluorescence (dot-like and clusters of fluorescence)", "setting": "[3]", "value": "partially quenches lipofuscin autofluorescence"},
      {"measurement": "effect on lipofuscin autofluorescence (dot-like and clusters of fluorescence)", "setting": "[3]; listed as p-Benzoquinone", "value": "reduced but not completely eliminated"},
      {"measurement": "effect on fixation induced haze background", "setting": "[3]; vs no pBQ control", "value": "greatly reduced"},
      {"measurement": "solubility", "setting": "[4]", "value": 100, "unit": "mM"},
      {"measurement": "target detection with ATTO dye label probes after p-benzoquinone treatment", "setting": "mouse FFPE liver tissue; ATTO 550 (UBC), ATTO 647N (POLR2A)", "value": "did not lead to successful detection"},
      {"measurement": "target detection with Dylight label probes after p-benzoquinone treatment", "setting": "mouse FFPE liver tissue; Dylight 550 (UBC), Dylight 650 (POLR2A)", "value": "successfully detected"},
      {"measurement": "effect on tissue autofluorescence", "setting": "[5]", "value": "reduced autofluorescence"},
      {"measurement": "Signal/noise ratio", "setting": "[2]; 2 mM, overnight, Polr2a, PPIB, UBC, Hprt1", "value": "+++"},
      {"measurement": "Signal/noise ratio", "setting": "[2]; 20 mM, 30 min", "value": "−−+"},
      {"measurement": "Signal/noise ratio", "setting": "[2]; 100 mM, 30 min", "value": "+++"},
      {"measurement": "Signal/noise ratio", "setting": "[2]; 200 mM, 30 min", "value": "+++"},
      {"measurement": "Signal/noise ratio", "setting": "[2]; Fluorescent dyes: Alexa dyes", "value": "+++"},
      {"measurement": "Signal/noise ratio", "setting": "[2]; Fluorescent dyes: Dylight dyes", "value": "+++"},
      {"measurement": "compatibility with RNA in situ hybridization assay", "setting": "[6]", "value": "compatible"},
      {"measurement": "effect on tissue autofluorescence", "setting": "[7]", "value": "effectively reduced autofluorescence"},
      {"measurement": "Signal/noise ratio", "setting": "[8]", "value": "+++"},
      {"measurement": "IF Signal compared to control", "setting": "FFPE mouse brain", "value": "Weaker"},
      {"measurement": "effect on tissue autofluorescence", "setting": "[9]", "value": "reduced autofluorescence"},
      {"measurement": "compatibility of autofluorescence quenching treatment with immunofluorescence", "setting": "[10]", "value": "compatible with immunofluorescence assays"},
      {"measurement": "IF Signal compared to control", "setting": "hTMAc", "value": "Weaker"},
      {"measurement": "Autofluorescence quenching effect", "setting": "[1]", "value": "Yes"}
    ]}
  ]
}
